Test results published in patent publication EP2862852B1, “Urea derivatives for the protection of stem cells” (Symrise AG, priority 2013, dated 2015).
Where two headings read alike, the source gives them in different places.

Tests used:
20S proteasome = molecular target: T1, 20S proteasome (Homo sapiens, UniProt P28074); assay: 20S Proteasome Assay (in vitro), chymotrypsin-like protease activity in NHDF cells; type: cell-based; conditions: 72 h
T1 construct: NHDF (normal human dermal fibroblasts) cells are disseminated in a 96-well microtiter plate; endogenous in cells; host or cells: NHDF (normal human dermal fibroblasts)

SIRT1 = SIRT1 assay (in vitro), SIRT1 expression by immunofluorescence in NHDF cells; type: cell-based, human; conditions: 10 µM, 48 h, mean values of at least 2 independent experiments
Protocol: NHDF cells (normal human dermal fibroblasts) were seeded in 96-well plates. After 24 h cultivation at 37 °C and 5% CO2 in DMEM (Dulbecco's Modified Eagle Medium), cells were treated with test substances for another 48 h. After washing the cells with PBS (phosphate buffered saline), the cells were fixed with paraformaldehyde and permeabilized. Then they were washed again and blocked with BSA (bovine serum albumen), followed by incubation with […]. After extensive washing, the fluorescence is measured in a microplate reader and fluorescence images were recorded on a fluorescence microscope with an attached […].
The stimulation of SIRT1 expression was calculated by: Stimulation of SIRT1expression[%] = ((RFU test substance−RFU background)/(RFU control−RFU background) × 100)−100 [formula] • RFU test substance = relative fluorescent units of the wells with test substance, stained completely • RFU control = relative fluorescent units of the wells without test substance, stained completely • RFU background = relative fluorescent units of the wells without test substance, stained only with secondary antibody.

[1] = tested on: B16V mouse melanoma cells; assay: Depigmentation effect on melanoma cell cultures; type: cell-based; conditions: 0.6 mM tyrosine and 10 nM α-MSH, 96 h, read-out: IC50, inhibition of pigmentation
Protocol: B16V mouse melanoma cells are disseminated in a 96-well micro-titre plate in a concentration of 7.5 x 10^3 cells/well. After cultivation for 24 h at 37°C and 5% CO2 in RPMI medium, enriched with 10% foetal calf serum, various concentrations of the test substances and 0.6 mM tyrosine and 10 nM α-MSH (α-melanocyte stimulating hormone) are added and incubated for a further 96 h. The maximum concentration of the test substances used corresponds to 0.1 times the value of the IC20 value of the cytotoxicity assay. Only tyrosine and α-MSH are added to the controls. After incubation, sodium hydroxide solution (final concentrations: 1 M) is added to the culture medium and the absorption (A) is measured after 3 h at 400 nm.
From the inhibition of pigmentation (%) in a series of dilutions of test compounds, the IC50 for each test compound is calculated. This is the concentration of a test compound at which pigmentation is inhibited by 50%.

Heme oxygenase-1 = Heme oxygenase-1 expression (in vitro), Western blot in NHDF cells; type: cell-based, human; conditions: 24 h
Protocol: NHDF (normal human dermal fibroblasts) cells were disseminated in a 6-well plate. After cultivation in fully enriched medium (DMEM, 10% FCS) for 48 h, the serum content was reduced to 0.1% to synchronize the cell cycle. Various concentrations of the test substances, the negative control (untreated cells) and tert.- butylhydrochinon as positive control, are added and incubated for a further 24 h. After cell lysis, the protein amount was determined using the Biorad BCA assay. All samples were adjusted to the same protein level before application on a fast Criterion Gel (Biorad) to perform electrophoresis for 20 minutes at 300 V. Thereafter the proteins were transferred to a PVDF membrane on a semi-dry blotter (30 minutes, 25 V). The blotted membrane is blocked for 4 hours in a 5% milk powder solution in TBST at 4°C. After washing, the membrane is incubated with the first antibody solution HO-1 from abcam (1:500 in 1% milk powder in TBST) over night. After this, washing is repeated and the membrane has to be incubated for 1 h in the second antibody solution (goat anti mouse coupled to HRP; 1:800 in 1% milk powder). […] The resulting band pattern is detected with a chemiluminescence sensitive camera system (Vilber Loumat). The quantification was done by densitometry. The up-regulation is calculated relative to control.

[2] = tested on: HHFSC (Human Hair Follicle Stem Cells); assay: Stem cell protection (in vitro): inhibition of UVB-induced apoptosis, caspase 3/7 chemiluminescence; type: cell-based; conditions: light or radiation study, 25 mJ/cm^2 UVB, relative to control, read-out: Inhibition of UV induced apoptosis
Protocol: HHFSC (Human Hair Follicle Stem Cells) isolated from hair follicle bulge (Celprogen) were cultivated in culture ware pre-coated with Human Hair Follicle Stem Cell Extra-cellular Matrix (Celprogen). The cells were incubated 2 h prior to and 16 h after UVB irradiation with test compounds. Cells were irradiated with 25 mJ/cm^2 UVB in the presence of buffer solution. Apoptosis induction was evaluated by caspase 3/7 protein expression (Caspase-Glo 3/7, Promega) and quantified by chemiluminescence measurement.

Hyaluronic acid = assay: Hyaluronic Acid Assay (in vitro), competitive ELISA in NHDF cells; type: cell-based, human; conditions: 72 h
Protocol: NHDF (normal human dermal fibroblasts) cells were disseminated in a 96-well microtiter plate in a concentration of 2 x 10^4 cells/well (DMEM, 10% FCS). After cultivation in fully enriched medium (DMEM, 10% FCS) for 48 h at 37°C and 5% CO2, the serum content was reduced to 0.1% to synchronize the cell cycle. Various concentrations of the test substances and TGF-beta1 as internal standard are added and incubated for a further 72 h. The maximum concentration of the test substances used corresponds to 0.2 times the value of the IC20 value of the cytotoxicity assay. Hyaluronic acid is quantified by a competitive ELISA (TECOmedical TE1017).
The percent bound for each standard and unknown substance is calculated using the following equation: HA_[ng/ml] = (Astandardortestsubstance −Ablank)/(Azerostandard −Ablank) [formula] The abbreviations have the following meanings: • A(standard or test substance): Absorption of the wells with standard or test substance • A(zero standard): Absorption of the wells without HA standard • A(blank): Absorption of the wells without antibody, without peroxidase conjugate A standard curve is generated by plotting the percent B/ B0 as a function of the log HA concentration. The HA amount in the unknown samples is calculated by interpolating from the percent B / B0 values to […]. InductionofHA[%] = ((HAtestsubstance −HAwithoutcells)/(HAcontrol −HAwithoutcells) × 100) [formula] The abbreviations have the following meanings: • HA test substance: Amount of HA of the wells with test substance and with cells • HA control: Amount of HA of the wells without test substance, but with cells • HA without cells Amount of HA of the wells without cells

| 20S proteasome stimulation relative to control (20S proteasome; 600 µM) [%] | IC50 ([1]; Mus musculus) [µM] | Compound | SIRT1 protein induction (SIRT1) [%] | further results |
| --- | --- | --- | --- | --- |
| 83 | – | O=C(NC1CCCCC1)NC1CCCCC1 [Compound 1, 1,3-dicyclohexylurea] | 34 | – |
| – | – | OC[C@H]1O[C@@H](Oc2ccc(O)cc2)[C@H](O)[C@@H](O)[C@@H]1O [beta-Arbutin, reference compound] | – | IC50 [1]: 67 µM |
| – | – | CC(C)(C)c1cc(O)ccc1O [tert.-butylhydrochinon, tert.- butylhydrochinon, reference compound] | – | HO-1 up-regulation relative to control (Heme oxygenase-1; 25 µM): 24.2-fold |
| – | 14.6 | C[C@@H]1CCCC[C@H]1NC(=O)NCC1CCCCC1 (relative stereo) [Compound 4, 1-(cyclohexylmethyl)-3-(trans-2-methylcyclohexyl) urea] | – | – |
| 105 | 290 | CCC(C)NC(=O)NC1CCCCC1 (stereo not drawn) [Compound 2, 1-cyclohexyl-3-sec-butyl-urea] | 57 | – |
| 85 | – | 1,3-bis(2-methylcyclohexyl)urea [Compound 7] | – | – |
| – | – | CC(C)CN(C)C(=O)NC1CCCCC1 [Compound 6, 3-cyclohexyl-(1-iso-butyl-1-methyl)-urea] | – | 20S proteasome stimulation relative to control (20S proteasome; 23.5 µM): 39% |
| – | 18 | CCCCCCNC(=O)NC1CCCCC1 [Compound 3, 1-cyclohexyl-3-hexyl-urea] | – | – |
| – | 452 | O=c1cc(CO)occ1O [Kojic acid, 5-hydroxy-2-hydroxymethyl-4-pyranone, reference compound] | – | – |
| – | 12.6 | CCCCC(CC)CNC(=O)NC1CCCCC1 (stereo not drawn) [Compound 5, 1-cyclohexyl-3-(2-ethylhexyl)urea] | 19 | inhibition at 20 µM ([2]; 0.02 mM): 20.4%; inhibition at 200 µM ([2]; 0.2 mM): 95.3%; 20S proteasome stimulation relative to control (20S proteasome; 780 µM): 37%; HO-1 up-regulation relative to control (Heme oxygenase-1; 250 µM): 10.2-fold; Hyaluronic acid stimulation relative to control (Hyaluronic acid; 0.1 µM): 67%; Hyaluronic acid stimulation relative to control (Hyaluronic acid; 0.5 µM): 51%; Hyaluronic acid stimulation relative to control (Hyaluronic acid; 5 µM): 39% |
